Measured values from patent US12435079B2, “Bruton's tyrosine kinase inhibitors” (priority 2019, dated 2025).

Target: T1, BTK (Homo sapiens, UniProt Q06187)
T1 construct: purchased Promega V2941
Assay: BTK Kinase Assay (ADP-Glo)
Type: biochemical
Settings: BTK enzyme, 50 μM ATP, one hour incubation, ADP-Glo luminescence; read-out: BTK Inhibition
Description: The BTK assay is performed using the BTK Kinase Enzyme System (Promega; Catalog #: V2941) and ADP-Glo™ Kinase Assay kit (Promega; Catalog #: V9101). Measurement were performed in a reaction volume of 5 μL using 384-well assay plate (Corning; Catalog #: 3570). 6 ng BTK enzyme, inhibitor or 1% DMSO, 1 μg Poly(Glu4, Tyr1) peptide, and 50 μM ATP were incubated in a reaction buffer composed of 40 mM Tris-Cl (pH7.5), 20 mM MgCl2, 0.1 mg/mL BSA, 50 μM DTT and 2 mM MnCl2 for one hour. ADP was detected as described in ADP-Glo™ Kinase Assay kit using 5 μl of ADP-Glo™ Reagent and 10 μl of Kinase Detection Reagent. Luminescence was recorded using a multimode plate reader (EnVision® Multilabel Reader, Perkin Elmer). There is a linear relationship between the luminescent signal and the amount of ADP in the reaction buffer. For each compound, enzyme activity was measured at various concentrations of compound, Negative control reactions were performed in the absence of inhibitor in three replicates and six no enzyme controls were used to determine baseline luminescence levels. Dose response curve were generated to determine the concentration required for IC50 of BTK activity.
The compound numbers correspond to the compound numbers in previous Tables. Compounds having an activity designated as “A” provided an IC 50≤10 nM; Compounds having an activity designated as “B” provided an IC50 10-100 nM; Compounds having an activity designated as “C” provided an IC50 100-1000 nM; Compounds having an activity designated as “D” provided an IC50 1000-10000 nM; Compounds having an activity designated as “E” provided an IC50≥10000 nM.

T1 sequence (Q06187 whole entry): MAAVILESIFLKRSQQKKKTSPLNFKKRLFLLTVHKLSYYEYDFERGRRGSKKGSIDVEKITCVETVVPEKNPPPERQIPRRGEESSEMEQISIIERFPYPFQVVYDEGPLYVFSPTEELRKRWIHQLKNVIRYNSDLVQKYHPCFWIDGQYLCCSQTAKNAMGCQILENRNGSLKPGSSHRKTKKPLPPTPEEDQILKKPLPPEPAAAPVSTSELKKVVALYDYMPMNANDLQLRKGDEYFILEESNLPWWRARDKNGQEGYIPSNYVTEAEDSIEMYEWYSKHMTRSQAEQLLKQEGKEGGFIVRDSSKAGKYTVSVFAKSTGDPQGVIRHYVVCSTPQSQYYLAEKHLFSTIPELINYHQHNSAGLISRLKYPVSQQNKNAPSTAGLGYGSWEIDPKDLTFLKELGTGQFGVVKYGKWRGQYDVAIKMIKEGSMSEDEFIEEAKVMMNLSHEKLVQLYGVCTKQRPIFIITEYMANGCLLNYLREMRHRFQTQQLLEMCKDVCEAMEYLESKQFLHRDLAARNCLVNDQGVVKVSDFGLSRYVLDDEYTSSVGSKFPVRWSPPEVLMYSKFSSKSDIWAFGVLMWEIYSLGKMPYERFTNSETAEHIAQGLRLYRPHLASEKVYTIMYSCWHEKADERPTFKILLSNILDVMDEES

| IC50 | Structure (SMILES) |
| --- | --- |
| ≤ 10 nM | COc1cccc(Oc2ccc(-c3nc(C4CCC(O)CC4)n4ccnc(N)c34)cc2)c1F (stereo not drawn) [Compound 2, 4-{8-Amino-1-[4-(2-fluoro-3-methoxy-phenoxy)-phenyl]-imidazo[1,5-a]pyrazin-3-yl}-cyclohexanol] |
| 10 to 100 nM | Nc1nccn2c(C3CCC(O)CC3)nc(-c3ccc(Oc4cccc(Cl)c4)cc3)c12 (stereo not drawn) [Compound 7] |
| ≤ 10 nM | Nc1nccn2c(C3CCC(O)CC3)nc(-c3ccc(Oc4cccc(Cl)c4F)cc3)c12 (stereo not drawn) [Compound 6, 4-{8-Amino-1-[4-(3-chloro-2-fluoro-phenoxy)-phenyl]-imidazo[1,5-a]pyrazin-3-yl}-cyclohexanol] |
| ≤ 10 nM | Cc1cccc(Oc2ccc(-c3nc(C4CCC(O)CC4)n4ccnc(N)c34)cc2)c1 (stereo not drawn) [Compound 8, 4-[8-Amino-1-(4-m-tolyloxy-phenyl)-imidazo[1,5-a]pyrazin-3-yl]-cyclohexanol] |
| ≤ 10 nM | Nc1nccn2c(C3CCCC(O)C3)nc(-c3ccc(Oc4ccccc4)cc3)c12 (stereo not drawn) [Compound 1, 3-[8-Amino-1-(4-phenoxy-phenyl)-imidazo[1,5-a]pyrazin-3-yl]-cyclohexanol] |
| ≤ 10 nM | Nc1nccn2c1c(-c1ccc(Oc3ccccc3)cc1)nc2[C@H]1CC[C@H](O)CC1 [Compound 5, 4-[8-Amino-1-(4-phenoxy-phenyl)-imidazo[1,5-a]pyrazin-3-yl]-cyclohexanol] |
| ≤ 10 nM | COc1ccccc1C(=O)NCc1ccc(-c2nc(C3CCC(O)CC3)n3ccnc(N)c23)cc1 (stereo not drawn) [Compound 11] |
| ≤ 10 nM | COc1cccc(Oc2ccc(-c3nc([C@@H]4CCC[C@@H](O)C4)n4ccnc(N)c34)cc2)c1F [Compound 4] |
| 10 to 100 nM | COc1cccc(Oc2ccc(-c3nc(C4CCC(O)CC4)n4ccnc(N)c34)cc2)c1C (stereo not drawn) [Compound 9, 4-{8-Amino-1-[4-(3-methoxy-2-methyl-phenoxy)-phenyl]-imidazo[1,5-a]pyrazin-3-yl}-cyclohexanol] |
